The results in this text go back to PMC10817170, “Effect of an NHE3 inhibitor in combination with an NPT2b inhibitor on gastrointestinal phosphate absorption in Rodent models” (PLOS ONE, 2024).

The target of data set [1] is T1, Human SGLT1 (Homo sapiens, UniProt P13866).
T1 construct: expressed in transfected cells; host or cells: CHO cells, constitutive expression
T1 sequence (P13866 1-664): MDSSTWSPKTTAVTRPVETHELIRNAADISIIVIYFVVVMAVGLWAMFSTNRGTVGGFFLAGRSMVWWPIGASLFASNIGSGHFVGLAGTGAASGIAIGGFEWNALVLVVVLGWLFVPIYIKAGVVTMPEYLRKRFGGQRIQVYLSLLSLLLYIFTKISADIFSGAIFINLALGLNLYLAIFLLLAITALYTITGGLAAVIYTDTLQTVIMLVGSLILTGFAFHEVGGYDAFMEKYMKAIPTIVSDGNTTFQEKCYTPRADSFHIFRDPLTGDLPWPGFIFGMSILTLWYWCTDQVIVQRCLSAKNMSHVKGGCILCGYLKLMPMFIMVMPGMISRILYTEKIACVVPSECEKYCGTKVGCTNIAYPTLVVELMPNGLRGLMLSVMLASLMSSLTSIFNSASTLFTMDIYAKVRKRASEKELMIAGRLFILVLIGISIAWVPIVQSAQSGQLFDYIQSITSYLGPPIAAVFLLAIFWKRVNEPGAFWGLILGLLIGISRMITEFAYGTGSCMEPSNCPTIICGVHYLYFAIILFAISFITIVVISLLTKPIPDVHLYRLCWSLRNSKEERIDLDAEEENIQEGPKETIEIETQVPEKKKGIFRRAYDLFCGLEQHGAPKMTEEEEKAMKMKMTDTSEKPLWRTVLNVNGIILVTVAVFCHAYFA
Briefly: SGLT1 activity assay (14C-alpha-methyl-D-glucopyranoside uptake in CHO cells). In kind it is cell-based. The settings on record: geometric mean, n=4. How it is done:
Generation of constitutive human Pit-2 and SGLT1 overexpressing CHO cells and activity assays measuring the uptake of ^33P phosphate for 45 minutes at 20°C for Pit-2 and ^14C-α-methyl-D-glucopyranoside for 120 minutes at 37°C for SGLT1, were also described previously.

The test system of data set [2] is T2, NHE3.
T2 construct: from tissue; host or cells: intestine of living C57Bl/6 mice
Briefly: Sodium excretion in urine after oral NaH2PO4 bolus in mice. In kind it is in vivo. The settings on record: sodium bolus plus 3 mg/kg po, urine 4 h, mean ± SEM. On the procedure: The effect of LY3304000 on sodium and phosphate excretion in urine was also assessed in mice. A dosing solution of 3 mg/kg LY3304000 for a 10 mL/kg dose volume was formulated in 1% HEC. An NaH2PO4 dosing solution at a 690 mg/kg with a […] dosing volume was made in sterile water. Male C57Bl/6 mice were fasted for 4 hours with access to water and then orally dosed at 10 mL/kg with 1% HEC vehicle or 3 mg/kg LY3304000. Fifteen minutes later, mice were orally dosed with either sterile water or NaH2PO4 solution, and then immediately transferred to a mouse holder on a 96-well plate for spot urine collection. Urine samples were collected for 4 hours post sterile water or NaH2PO4 dose. Urinary sodium, creatinine, and phosphorus (as a measure of phosphate) were determined using a clinical biochemistry analyzer. The urinary sodium-to-creatinine ratio was calculated and compared between vehicle and LY3304000 treated groups.

The subject of data set [3] is acute phosphate uptake into plasma. The data set is described as follows: Acute radiolabeled phosphate uptake into plasma in mice. In kind it is in vivo. How it is done: A dosing solution for a 10 mg/kg dose of LY3304000 using a 10 mL/kg dosing volume was made in 1% HEC vehicle. The subsequent dosing solutions for 3, 1, 0.3, 0.1, 0.03, 0.01, 0.003, and 0.001 mg/kg were prepared by serial dilutions with HEC. A Radiolabeled Phosphate Dosing Solution was made in a 16.25 mM Na2HPO4, 0.9% saline, pH 7.4, solution with the addition of about 2.5 μCi/mL radioactive phosphate (H3^33PO4, PerkinElmer) and filtered before dosing. Following 12-hour fasting with access to water, male SD rats were orally dosed at 10 mL/kg with either vehicle or varying doses of LY3304000. Fifteen minutes later, 2 mL of the Radiolabeled Phosphate Dosing Solution was dosed by oral gavage. This dose of phosphate was chosen because it approximates the rat equivalent to the amount of bioavailable phosphate in a human meal, 4 mg/kg phosphorus, or 320 mg phosphorus for an 80 kg person on a phosphate restricted diet. Fifteen minutes later, blood was collected by cardiac stick, and plasma was prepared. Radioactivity (dpm) in 50 μL plasma was measured by scintillation counting. To determine the total radioactivity dosed to each rat, the radioactivity in two 10-μL samples of the Radiolabeled Phosphate Dosing Solution was measured by scintillation counting. To calculate the total radioactivity recovered in plasma, it was assumed that total blood volume constitutes about 60% of the body weight and plasma constitutes about 55% of the total blood. The mole amount of phosphate uptake was calculated as the percentage of administered radiolabeled phosphate recovered in the plasma of vehicle or LY3304000 treated rats multiplied by total phosphate amount in the radiolabeled phosphate dosing solution. ED50 values were then determined with a 4-parameter logistic curve fitting model using GraphPad Prism. A 15-minute time point, post phosphate dosing, was chosen for collecting blood in the acute phosphate uptake studies in rats and mice (see below) to capture the initial rate of phosphate absorption. We wanted to avoid measurements at longer time points when plasma radiolabeled phosphate appears to be at a steady state. LY3304000 dosing solution and Radioactive Phosphate Dosing Solution were made as described above. Following 12-hour fasting with access to water, male C57Bl/6 mice were dosed orally at 10 mL/kg with either vehicle or varying doses of LY3304000. Fifteen minutes later, 200 μL of the Radiolabeled Phosphate Dosing Solution was dosed by oral gavage. Fifteen minutes later, blood was collected by cardiac stick, and plasma was prepared. The measurement of acute phosphate uptake was determined as described above for rats.

The test system of data set [4] is Madin-Darby Canine Kidney (MDCK) cell. The data set is described as follows: MDCK cell uni-directional permeability assay. In kind it is in vitro ADME. The settings on record: 20 µM, one hour, 24-well format. How it is done:
LY3304000 has very low in vitro cell permeability. In a standard Madin-Darby Canine Kidney (MDCK) cell uni-directional permeability assay, measuring the percentage A to B (% A-B) transport in a 24-well format, the % A-B of LY330400 transport is 0.16 % at 20 µM for the assay duration of one hour.

On to `CN1Cc2c(Cl)cc(Cl)cc2[C@H](c2cccc(S(=O)(=O)NCCOCCOCCN/C(=N\C(N)=O)NCCCCN/C(=N/C(N)=O)NCCOCCOCCNS(=O)(=O)c3cccc([C@@H]4CN(C)Cc5c(Cl)cc(Cl)cc54)c3)c2)C1.Cl.Cl` [LY3304000, (Z)-[[4-[[(Z)-N’-carbamoyl-N-[2-[2-[2-[[3-[(4S)-6,8-dichloro-2-methyl-3,4-dihydro-1H-isoquinolin-4-yl]phenyl]sulfonylamino]ethoxy]ethoxy]ethyl]carbamimidoyl]amino]butylamino]-[2-[2-[2-[[3-[(4S)-6,8-dichloro-2-methyl-3,4-dihydro-1H-isoquinolin-4-yl]phenyl]sulfonylamino]ethoxy]ethoxy]ethylamino]methylene]urea dihydrochloride], for which the IC50 (commonly the midpoint of a concentration-inhibition curve) in data set [1] came to 6.6 µM. In data set [2], the Urinary sodium-to-creatinine ratio is listed as 14.6 ± 1.7 mg/mg. Also, the ED50 (commonly the dose at which the effect has come halfway, by size or by number of responders) in data set [3] (Mus musculus, po, 0.25 h, oral, plasma 15 min post 33P phosphate, read-out: ED50 (increase of phosphate uptake)) was 0.48 mg/kg. The “Emax, Pi uptake” value in data set [3] (curve fit) came out at 80.01 nmol. For the same molecule, the “radiolabeled phosphate recovered in plasma” value in data set [3] (highest doses tested, vehicle 39 nmoles) stood at 78 nmol. In addition, the “ED50 (increase of phosphate uptake)” value in data set [3] (oral, plasma 15 min post 33P phosphate) came out at 0.479 mg/kg. For the same molecule, the “percentage A to B (% A-B) transport” value in data set [4] is recorded as 0.16%.
